Columns and labels:
[1] = biological target: Luciferin 4-monooxygenase (Photinus pyralis, UniProt P08659)
Description: GSK_PKIS: Inhibition of Firefly Luciferase (Data from PubChem: AID 652016) [NIH NCATS]

[2] = biological target: T1, Coelenterazine h 2-monooxygenase (Renilla reniformis, UniProt P27652)
T1 sequence (P27652 whole entry): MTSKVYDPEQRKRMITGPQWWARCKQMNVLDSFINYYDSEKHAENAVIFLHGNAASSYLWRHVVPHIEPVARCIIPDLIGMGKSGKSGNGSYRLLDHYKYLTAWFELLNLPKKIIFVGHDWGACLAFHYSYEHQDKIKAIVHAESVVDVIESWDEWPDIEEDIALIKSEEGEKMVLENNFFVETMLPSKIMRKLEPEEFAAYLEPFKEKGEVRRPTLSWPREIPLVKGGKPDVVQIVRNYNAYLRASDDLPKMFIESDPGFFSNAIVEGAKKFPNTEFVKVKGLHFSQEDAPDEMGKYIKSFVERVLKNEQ
Description: GSK_PKIS: Inhibition of Sea Pansy Luciferase (Data from PubChem: AID 652015) [NIH NCATS]

Chain of Luciferin 4-monooxygenase (P08659 whole entry): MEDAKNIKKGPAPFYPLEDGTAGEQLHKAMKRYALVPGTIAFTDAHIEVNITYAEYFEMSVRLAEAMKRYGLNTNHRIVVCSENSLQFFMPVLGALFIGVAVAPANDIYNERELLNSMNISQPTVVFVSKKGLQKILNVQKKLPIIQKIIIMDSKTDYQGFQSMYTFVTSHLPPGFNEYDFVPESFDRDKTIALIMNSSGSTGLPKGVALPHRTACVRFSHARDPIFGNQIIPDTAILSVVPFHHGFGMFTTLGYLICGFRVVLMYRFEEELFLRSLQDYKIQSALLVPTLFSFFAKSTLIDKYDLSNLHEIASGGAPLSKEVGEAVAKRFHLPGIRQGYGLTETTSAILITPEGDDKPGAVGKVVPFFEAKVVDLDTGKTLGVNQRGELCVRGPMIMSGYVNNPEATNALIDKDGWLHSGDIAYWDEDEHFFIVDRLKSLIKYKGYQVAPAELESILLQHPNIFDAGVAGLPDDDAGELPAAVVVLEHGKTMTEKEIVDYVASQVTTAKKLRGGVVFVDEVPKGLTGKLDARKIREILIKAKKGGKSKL

| AC50 ([2]; read-out: AC50) [µM] | AC50 ([1]; read-out: AC50) [µM] | Compound | AC50 [1] | AC50 [2] |
| --- | --- | --- | --- | --- |
|  | 1.03 | CCn1c(-c2nonc2N)nc2cnc(Oc3cccc(NC(=O)c4ccc(N(C)C)cc4)c3)cc21 [GSK-248233A] |  | Phenotype: Inactive; Curve_Description: None |
|  |  | O=C(O)C(F)(F)F.O=C(O[C@H]1CN[C@H](C#Cc2cc3ncnc(Nc4ccc5c(ccn5Cc5cc(F)ccc5F)c4)c3s2)C1)N1CCOCC1 [GSK-259178A] | Phenotype: Inactive; Curve_Description: None | Phenotype: Inactive; Curve_Description: None |
|  |  | CCn1c(-c2nonc2N)nc2cnc(Oc3cccc(NC(=O)c4ccc(OCCN5CCOCC5)cc4)c3)cc21.Cl [GSK-269962B] | Phenotype: Inactive; Curve_Description: None | Phenotype: Inactive; Curve_Description: None |
|  | 41.1 | CC1=C(C(=O)Nc2ccc3[nH]ncc3c2)C(c2ccc3ccccc3c2)CC(=O)N1 (configuration not stated) [GSK-270822A] |  | Phenotype: Inactive; Curve_Description: None |
|  |  | CC1=C(C(=O)Nc2ccc3[nH]ncc3c2)C(c2ccc(Cl)c(Cl)c2)CC(=O)N1 (configuration not stated) [GSK-299115A] | Phenotype: Inactive; Curve_Description: None | Phenotype: Inactive; Curve_Description: None |
|  |  | CS(=O)(=O)CCNCc1cc(-c2cc3c(Nc4ccc(OCc5cccc(F)c5)c(Cl)c4)ncnc3s2)cs1 [GSK-300014A] | Phenotype: Inactive; Curve_Description: None | Phenotype: Activator; Curve_Description: None |
|  |  | COc1ccc2ncn(-c3cc(O[C@H](C)c4ccccc4Cl)c(C(N)=O)s3)c2c1 [GSK-317314A] | Phenotype: Inactive; Curve_Description: None | Phenotype: Inactive; Curve_Description: None |
|  | 41.1 | CC1=C(C(=O)Nc2ccc3[nH]ncc3c2)C(c2ccc(F)cc2)N=C(c2ccc(C(F)(F)F)nc2)N1 (configuration not stated) [GSK-317354A] |  | Phenotype: Activator; Curve_Description: None |
|  |  | COc1cc2ncn(-c3cc(OCc4ccccc4S(C)(=O)=O)c(C#N)s3)c2cc1OC [GSK-319347A] | Phenotype: Inactive; Curve_Description: None | Phenotype: Inactive; Curve_Description: None |
| 25.9 |  | C[C@@H](Oc1cc(-n2cnc3ccc(OCC4CCN(C)CC4)cc32)sc1C(N)=O)c1ccccc1C(F)(F)F [GSK-326090A] | Phenotype: Inactive; Curve_Description: None |  |
|  |  | CC1=C(C(=O)Nc2ccc3[nH]nc(C)c3c2)C(c2ccc(C(F)(F)F)cc2)CC(=O)N1 (configuration not stated) [GSK-466314A] | Phenotype: Inactive; Curve_Description: None | Phenotype: Inactive; Curve_Description: None |
|  |  | CC1=C(C(=O)Nc2cc(Cl)c3[nH]ncc3c2)C(c2ccc(C(F)(F)F)cc2)CC(=O)N1 (configuration not stated) [GSK-466317A] | Phenotype: Inactive; Curve_Description: None | Phenotype: Inactive; Curve_Description: None |
|  |  | CCn1c(-c2nonc2N)nc2c(C#CC(C)(C)O)ncc(OCC3CCNCC3)c21.O=C(O)C(F)(F)F [GSK-554170A] | Phenotype: Inactive; Curve_Description: None | Phenotype: Inactive; Curve_Description: None |
| 20.6 |  | C[C@@H](Oc1cc(-n2cnc3ccc(OC4CCN(C)CC4)cc32)sc1C(N)=O)c1ccccc1Cl [GSK-579289A] | Phenotype: Inactive; Curve_Description: None |  |
|  |  | CS(=O)(=O)Nc1ccc(-c2cc(-c3ccccc3)cc(C(N)=O)c2N)cc1 [GSK-586581A] | Phenotype: Inactive; Curve_Description: None | Phenotype: Inactive; Curve_Description: None |
|  |  | COc1ccc(-c2ccncc2)cc1C(N)=O [GSK-605714A] | Phenotype: Inactive; Curve_Description: None | Phenotype: Inactive; Curve_Description: None |
|  |  | CCn1c(-c2nonc2N)nc2c(C#CC(C)(C)O)ncc(OC3CCNCC3)c21.O=C(O)C(F)(F)F [GSK-619487A] | Phenotype: Inactive; Curve_Description: None | Phenotype: Inactive; Curve_Description: None |
|  |  | NC(=O)c1cc(-c2ccc(F)cc2)cc(-c2ccncc2)c1N [GSK-620503A] | Phenotype: Inactive; Curve_Description: None | Phenotype: Inactive; Curve_Description: None |
|  | 41.1 | NC(=O)c1cc(-c2ccncc2)cc(-c2ccccc2)c1N [GSK-625137A] |  | Phenotype: Inactive; Curve_Description: None |

| AC50 ([2]; read-out: AC50) [µM] | AC50 ([1]; read-out: AC50) [µM] | Compound | AC50 [1] | AC50 [2] |
| --- | --- | --- | --- | --- |
|  |  | CNC(=O)c1cc(-c2ccc(F)cc2)cc(-c2ccc(S(=O)(=O)N3CCCC3)cc2)c1N [GSK-635416A] | Phenotype: Inactive; Curve_Description: None | Phenotype: Activator; Curve_Description: None |
|  | 29.1 | COc1c(C(N)=O)cc(-c2ccc(Cl)cc2)cc1-c1ccc(S(N)(=O)=O)cc1 [GSK-711701A] |  | Phenotype: Inactive; Curve_Description: None |
|  |  | CCn1cc(-c2ccnc3[nH]ccc23)c(-c2cccc(NC(=O)Nc3ccc(OCc4ccccc4)cc3)c2)n1 [GSK-718429A] | Phenotype: Inactive; Curve_Description: None | Phenotype: Inactive; Curve_Description: None |
| 29.1 |  | CCn1c(-c2nonc2N)nc2c(C#CC(C)(C)O)nc(OC[C@@H](N)c3ccccc3)cc21 [GSK-938890A] | Phenotype: Inactive; Curve_Description: None |  |
| 29.1 |  | CCn1c(-c2nonc2N)nc2c(C#CC(C)(C)O)nc(OC[C@H](N)c3ccccc3)cc21 [GSK-943949A] | Phenotype: Inactive; Curve_Description: None |  |
| 20.6 |  | CCn1c(-c2nonc2N)nc2c(C#CC(C)(C)O)nc(OCCNC)cc21.Cl [GSK-949675A] | Phenotype: Inactive; Curve_Description: None |  |
|  |  | Fc1cccc(COc2ccc(Nc3ncnc4sc(-c5ccco5)cc34)cc2Cl)c1 [GSK-969786A] | Phenotype: Inactive; Curve_Description: None | Phenotype: Inactive; Curve_Description: None |
|  |  | C[C@@H](Oc1cc(-n2cnc3ccc(OC[C@@H](O)CO)cc32)sc1C(N)=O)c1ccccc1Cl [GSK-978744A] | Phenotype: Inactive; Curve_Description: None | Phenotype: Inactive; Curve_Description: None |
| 25.9 |  | NS(=O)(=O)c1cccc(-c2cc3ccncc3cc2OCc2ccccc2)c1 [GSK-980961A] | Phenotype: Inactive; Curve_Description: None |  |
| 46.1 |  | CCCN1CCC=C(c2ccc(Nc3nc(Nc4ccccc4C(N)=O)c4cc[nH]c4n3)c(C)c2)C1 [GSK-994854A] | Phenotype: Inactive; Curve_Description: None |  |
|  |  | CCn1c(-c2nonc2N)nc2c(C#CC(C)(C)O)nc(CN3CCCC3)cc21 [GSK-1000163A] | Phenotype: Inactive; Curve_Description: None | Phenotype: Inactive; Curve_Description: None |
| 25.9 |  | NC(=O)c1sc(-n2cnc3ccccc32)cc1OCc1ccccc1Br [GSK-1023156A] | Phenotype: Inactive; Curve_Description: None |  |
|  |  | COC(=O)c1sc(-n2cnc3cc(OC)c(OC)cc32)cc1OCc1ccccc1C(F)(F)F [GSK-1030058A] | Phenotype: Inactive; Curve_Description: None | Phenotype: Inactive; Curve_Description: None |
|  |  | COc1cc2ncn(-c3cc(OCc4ccccc4C(F)(F)F)c(C(C)=O)s3)c2cc1OC [GSK-1030059A] | Phenotype: Inactive; Curve_Description: None | Phenotype: Inactive; Curve_Description: None |
|  |  | CNC(=O)c1sc(-n2cnc3cc(OC)c(OC)cc32)cc1OCc1ccccc1C(F)(F)F [GSK-1030061A] | Phenotype: Inactive; Curve_Description: None | Phenotype: Inactive; Curve_Description: None |
| 23.1 |  | COc1cc2ncn(-c3cc(OCc4ccccc4C(F)(F)F)c(C(=O)N(C)C)s3)c2cc1OC [GSK-1030062A] | Phenotype: Inactive; Curve_Description: None |  |
| 32.6 |  | CCCN1CCCC(c2ccc(Nc3nc(Nc4cc(F)ccc4C(N)=O)c4cc[nH]c4n3)c(OC)c2)C1 (configuration not stated) [GSK-1173862A] | Phenotype: Inactive; Curve_Description: None |  |
| 20.6 | 25.9 | COc1cc(N2CCN(C(C)C)CC2)ccc1Nc1nc(Nc2ccc(F)cc2C(N)=O)c2cc[nH]c2n1 [GSK-1220512A] |  |  |
| 18.3 |  | CCCN1CCC(c2ccc(Nc3nc(Nc4cc(F)ccc4C(N)=O)c4cc[nH]c4n3)c(OC)c2)CC1 [GSK-1326255A] | Phenotype: Inactive; Curve_Description: None |  |

| Compound | AC50 ([2]; read-out: AC50) [µM] | AC50 ([1]; read-out: AC50) [µM] | AC50 [1] | AC50 [2] |
| --- | --- | --- | --- | --- |
| O=C(O)C(F)(F)F.O=C(O[C@H]1CN[C@H](C#Cc2cc3ncnc(Nc4ccc(Cc5ccccc5)cc4)c3s2)C1)N1CCOCC1 [GSK-238583A] | 23.1 |  | Phenotype: Inactive; Curve_Description: None |  |
| COc1cc2ncn(-c3cc(OCc4cccs4)c(C(N)=O)s3)c2cc1OC [GSK-312948A] | 9.19 |  | Phenotype: Inactive; Curve_Description: None |  |
| COc1ccc2ncn(-c3cc(O[C@H](C)c4ccccc4C(F)(F)F)c(C(N)=O)s3)c2c1 [GSK-317315A] | 20.6 |  | Phenotype: Inactive; Curve_Description: None |  |
| CCn1c(-c2nonc2N)nc2c(C#CCN)ncc(OCCCN)c21.O=C(O)C(F)(F)F [GSK-561866B] | 23.1 |  | Phenotype: Inactive; Curve_Description: None |  |
| C[C@@H](Oc1cc(-n2cnc3ccc(OCC4CCN(C)CC4)cc32)sc1C(N)=O)c1ccccc1Cl [GSK-571989A] | 20.6 |  | Phenotype: Inactive; Curve_Description: None |  |
| CCn1c(-c2nonc2N)nc2c(C#CC(C)(C)O)ncc(OC[C@@H]3CCCN3)c21.O=C(O)C(F)(F)F [GSK-614526A] | 18.3 |  | Phenotype: Inactive; Curve_Description: None |  |
| NS(=O)(=O)c1ccc(-c2cc3ccncc3cc2OCc2ccccc2)cc1 [GSK-953913A] | 5.8 |  | Phenotype: Inactive; Curve_Description: None |  |
| CCn1c(-c2nonc2N)nc2c(C#CC(C)(C)O)nc(O[C@@H](CN)c3ccccc3)cc21.O=C(O)C(F)(F)F [GSK-1007102B] | 29.1 |  | Phenotype: Inactive; Curve_Description: None |  |

— ChEMBL document CHEMBL2303647, “Data associated with the publication PLoS ONE, 8(3), e57888, (2013) PMID: 23505445. Compounds: GSK PKIS; Assays: NIH NCATS”
